The supplement of paper PMC10307832

How the values were obtained:
Assay in all cases: relative viability (nuclei count vs DMSO), 5 days (fraction); higher = more cells survive
Cabozantinib + Foretinib = compound: COc1cc2nccc(Oc3ccc(NC(=O)C4(C(=O)Nc5ccc(F)cc5)CC4)cc3)c2cc1OC [Cabozantinib] + COc1cc2c(Oc3ccc(NC(=O)C4(C(=O)Nc5ccc(F)cc5)CC4)cc3F)ccnc2cc1OCCCN1CCOCC1 [Foretinib] (partner 0.25 µM)
How it was run: (§1)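 A single step with final 0.05% Triton X-100, 1% formaldehyde and 1 ug/ml Hoechst fixed the cells and stained nuclei 5 days after treatment. Lung cancer cell lines in 1536-well plates had been treated by pin tool the day after seeding with one drug alone or a fixed anchor-drug dose plus five library-drug doses (not always all listed) in √10 steps, and nuclei were counted on 4× images. Relative viability is the ratio of nuclei in treated wells to nuclei in vehicle wells, taken as the median of duplicate plates.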

Zosuquidar + Luminespib = compound: O[C@@H](COc1cccc2ncccc12)CN1CCN([C@@H]2c3ccccc3[C@@H]3[C@H](c4ccccc42)C3(F)F)CC1 [Zosuquidar] + CCNC(=O)c1noc(-c2cc(C(C)C)c(O)cc2O)c1-c1ccc(CN2CCOCC2)cc1 [Luminespib] (partner 0.01 µM)
How it was run: as §1

Kobe2602 + Foretinib = compound: C1=CC(=CC=C1NC(=S)NNC2=C(C=C(C=C2[N+](=O)[O-])C(F)(F)F)[N+](=O)[O-])F [Kobe2602] + COc1cc2c(Oc3ccc(NC(=O)C4(C(=O)Nc5ccc(F)cc5)CC4)cc3F)ccnc2cc1OCCCN1CCOCC1 [Foretinib] (partner 0.25 µM)
How it was run: as §1

Zosuquidar + Bortezomib = compound: O[C@@H](COc1cccc2ncccc12)CN1CCN([C@@H]2c3ccccc3[C@@H]3[C@H](c4ccccc42)C3(F)F)CC1 [Zosuquidar] + CC(C)C[C@H](NC(=O)[C@H](Cc1ccccc1)NC(=O)c1cnccn1)B(O)O [Bortezomib] (partner 0.002 µM)
How it was run: as §1

Row | Cell Line | relative viability (Cabozantinib + Foretinib; first compound 0.02 µM) | relative viability (Cabozantinib + Foretinib; first compound 0.06325 µM) | relative viability (Cabozantinib + Foretinib; first compound 0.2 µM) | relative viability (Cabozantinib + Foretinib; first compound 0.6325 µM) | relative viability (Cabozantinib + Foretinib; first compound 2 µM) | relative viability (Zosuquidar + Luminespib; first compound 0.01 µM) | relative viability (Zosuquidar + Luminespib; first compound 0.03162 µM) | relative viability (Zosuquidar + Luminespib; first compound 0.1 µM) | relative viability (Zosuquidar + Luminespib; first compound 0.3162 µM) | relative viability (Zosuquidar + Luminespib; first compound 1 µM) | relative viability (Kobe2602 + Foretinib; first compound 0.2 µM) | relative viability (Kobe2602 + Foretinib; first compound 0.6325 µM) | relative viability (Kobe2602 + Foretinib; first compound 2 µM) | relative viability (Kobe2602 + Foretinib; first compound 6.325 µM) | relative viability (Kobe2602 + Foretinib; first compound 20 µM) | relative viability (Zosuquidar + Bortezomib; first compound 0.01 µM) | relative viability (Zosuquidar + Bortezomib; first compound 0.03162 µM) | relative viability (Zosuquidar + Bortezomib; first compound 0.1 µM) | relative viability (Zosuquidar + Bortezomib; first compound 0.3162 µM) | relative viability (Zosuquidar + Bortezomib; first compound 1 µM)
1 | NCI-H1437 | 1.29 | 1.37 | 1.29 | 1.27 | 1.21 | 1.1 | 1.14 | 1.05 | 1.13 | 1.11 | 1.28 | 1.28 | 1.15 | 1.23 | 1.09 | 0.468 | 0.442 | 0.475 | 0.53 | 0.463
2 | EKVX | 0.77 | 0.862 | 0.81 | 0.536 | 0.852 | 0.926 | 0.8 | 0.749 | 0.812 | 0.832 | 1.05 | 0.753 | 0.7 | 0.839 | 1.03 | 1.05 | 0.975 | 0.839 | 0.984 | 1.02
3 | NCI-H596 | 0.89 | 1.09 | 0.9 | 0.906 | 0.777 | 1.1 |  | 0.804 | 0.983 | 0.931 | 0.851 | 0.708 | 0.957 | 0.915 | 0.846 | 0.985 | 1.09 | 0.718 | 1.02 | 1.01
4 | NCI-H1993 | 0.807 | 0.74 | 0.649 | 0.745 | 0.735 | 0.874 | 0.78 | 1.55 | 0.778 | 0.75 | 0.789 | 0.748 | 0.689 | 0.687 | 0.642 | 1.02 | 0.99 | 1.08 | 1.17 | 1.11
5 | HCC-78 |  | 0.684 | 0.549 | 0.541 | 0.518 |  |  |  |  |  | 0.628 | 0.541 | 0.669 | 0.575 | 0.577 | 0.582 | 0.392 |  | 0.625 | 0.428
6 | NCI-H2087 | 1.17 | 1 | 1.3 | 1.2 | 0.967 | 0.155 |  | 0.184 | 0.195 | 0.16 | 1.09 | 1.18 | 1.07 | 1.11 | 1.18 | 0.849 | 0.701 | 0.94 | 0.923 | 0.85
7 | H3255 | 0.773 | 1.01 |  | 0.979 | 1.07 | 1.02 | 0.925 | 0.666 | 1.05 | 0.814 | 0.946 | 0.834 | 0.784 | 0.882 | 0.944 | 0.788 | 0.871 | 0.661 | 0.798 | 0.569
8 | NCI-H2126 |  | 1.36 | 1.22 | 1.06 | 1.17 | 0.93 | 0.909 |  | 0.935 | 0.952 | 1.17 | 1.25 | 1.07 | 0.996 | 1.01 | 1.12 | 1.04 | 1.01 | 1.19 | 1.09
9 | LC-2-ad |  | 1.03 | 0.889 | 1.02 | 0.89 | 1.05 | 0.85 | 0.981 | 0.999 | 0.987 | 0.94 | 0.946 | 0.932 | 1.03 | 0.996 | 1.07 | 0.975 | 0.989 | 1.26 | 0.933
10 | SW 1573 | 0.966 | 0.828 | 0.984 | 1.09 | 0.964 | 0.281 | 0.287 | 0.287 | 0.275 | 0.355 | 1.02 | 0.873 | 0.998 | 1 | 1.18 | 0.976 | 0.987 | 1.04 | 1.18 | 1.14
11 | EBC-1 | 0.101 | 0.104 | 0.0976 | 0.0898 | 0.114 |  |  |  |  |  | 0.116 | 0.108 | 0.113 | 0.0943 | 0.111 | 0.649 | 0.553 | 0.652 | 0.591 | 0.547
12 | HCC-15 | 1.26 | 1.13 | 1.06 | 1.04 | 1.07 | 0.122 | 0.5 | 0.21 | 0.222 | 0.533 | 0.979 | 1.09 | 0.974 | 1.09 | 0.974 | 0.925 | 0.998 | 0.956 | 0.995 | 1.04
13 | NCI-H1650 | 1.31 | 1.48 | 1.02 | 1.27 | 0.978 | 0.178 | 0.183 | 0.204 | 0.203 | 0.202 | 0.998 | 1.31 | 0.962 | 1.09 | 1.59 | 0.227 | 0.226 | 0.206 | 0.219 | 0.222
14 | COR-L 105 | 1.36 | 1.01 |  | 1.14 | 0.969 | 0.923 | 0.789 | 0.757 | 0.858 | 0.782 | 0.986 | 1.02 | 0.867 | 1.1 | 0.979 | 0.738 | 0.742 | 0.899 | 1.16 | 0.874
15 | NCI-H650 |  | 1.03 | 1.06 | 0.999 | 0.984 | 0.96 | 0.764 | 0.809 | 0.777 | 0.904 | 1.1 | 1.01 | 1.05 | 1.05 | 0.907 | 0.858 | 0.863 |  | 1.01 | 0.919
16 | LXF-289 | 0.974 | 1 | 0.934 | 1.02 | 0.993 | 0.665 | 0.762 | 0.675 | 0.711 | 0.581 | 0.959 | 0.943 | 0.984 | 0.941 | 1.01 | 0.993 | 1.01 | 1.01 | 0.99 | 0.976
17 | NCI-H1703 | 0.305 | 0.399 | 0.356 | 0.427 | 0.37 |  |  |  |  |  | 0.404 | 0.349 | 0.4 | 0.321 | 0.329 | 0.441 | 0.329 | 0.371 | 0.397 | 0.567
